In the METLIN SMRT retention time set (Domingo-Almenara et al. 2019):

Test: gradient 5% acetonitrile 3 min, to 50% in 2 min, to 85% in 15 min, held 3 min, 100 µL/min
Details: column: Zorbax Extend-C18 2.1 x 50 mm; eluents: water / acetonitrile, 0.1% formic acid
Method in brief: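 Pure standards were analyzed in mixtures of ~100 molecules using HPLC coupled to a quadrupole time-of-flight mass spectrometer, in both positive and negative ionization mode. Separation used a Zorbax Extend-C18 column (2.1 × 50 mm, 1.8 μm) at 100 μL/min, with water and acetonitrile each containing 0.1% formic acid. Dead and dwell volumes were 40 μL and 900 μL, and data were collected over 3 months. Retention time was read from computationally picked adduct peaks, each inspected manually.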

RP-LC retention time [s] | Compound
683 | CCCNC(=O)CC1CCN(C(=O)c2[nH]c(C)c(C(=O)OCC)c2C)CC1
724 | Cn1nc2n(c1=O)CCC(NC(=O)c1n[nH]c3c1CC(C(C)(C)C)CC3)CC2 (stereo not given)
990 | Cc1noc(-c2nc(-c3ccccc3F)no2)n1
754 | COc1ccc(CCNC(=O)c2nc(CCS(=O)(=O)c3ccccc3)no2)cc1OC
1300 | Cc1ccc(C)c(-c2csc(Cc3nc(-c4ccc(F)cc4)no3)n2)c1
804 | CN(CC1CCOC1)S(=O)(=O)Cc1cccc(Cl)c1 (stereo not given)
768 | NC(=O)N/N=C1\CC2CC1C1C=CCC21 (stereo not given)
1130 | CCn1ccc2oc(C)c(C(=O)NCc3ccc(C(C)C)cc3)c2c1=O
654 | CNC(=O)C1CCCN(c2nc3ncn(CC(=O)Nc4ccccc4Cl)c(=O)c3s2)C1 (stereo not given)
1050 | Cc1ccc(-c2noc(C3CCCN3C(=O)C3CC(=O)N(c4ccc(C)c(C)c4)C3)n2)cc1 (stereo not given)
673 | NC(=O)c1ccsc1NC(=O)c1c[nH]c2ccccc12
703 | CSc1ccc(CCNC(=O)CCC(=O)N2CCCn3nc(C)cc32)cc1
924 | Cc1nc(-c2ccc(N3CCN(C(=O)c4cc5ccccc5[nH]4)CC3)nc2)sc1C
704 | CCc1cccc(NC(=O)C2(C)Oc3cccnc3NC2=O)c1 (stereo not given)
568 | Cc1cc(N2CCN(C)CC2)nc2ccc(NC(=O)NC3CCCC3)cc12
1020 | CC(C)(C)c1noc(-c2ccnc(-n3cnc(C(=O)NC4CCCC4)c3)c2)n1
670 | O=C(Cn1c(=O)n(C2CC2)c(=O)c2nscc21)NCc1cccs1
720 | Cc1cc2c(cc1S(=O)(=O)N1CCCC1C(=O)Nc1ccc3c(c1)OCO3)OCC(=O)N2 (stereo not given)
805 | Cc1cccc(Cn2c(CN3CCC(C(=O)NCc4cccs4)CC3)cc3ccccc32)c1
1290 | COc1ccc(-c2noc(-c3cccnc3N3CCN(c4ccccc4)CC3)n2)cc1
853 | CC1Cc2ccc(CNC(=O)NC(C)(C)C)cc2N1C(=O)c1ccccc1 (stereo not given)
600 | Cc1c(NC(=O)c2cccs2)c(=O)n(-c2ccccc2)n1C
701 | CCn1c(=O)c2ccn(CC(=O)Nc3ccc4c(c3)OCCO4)c2n(CC)c1=O

RP-LC retention time [s] | Compound
641 | COc1ccc(CCNC(=O)Cn2nc3n(c2=O)CCCCC3)cc1OC
856 | CCCC(C)C(=O)NC1CCN(C2=NS(=O)(=O)C(c3ccc(F)cc3)=C2C)CC1 (stereo not given)
619 | COCc1cc(=O)n(CC(=O)NCc2ccccc2Cl)c(N)n1
686 | Cc1ccsc1C(=O)Nc1ccc2c(N3CCCCC3)ncnc2c1
974 | CCCc1noc(-c2ccnc(-n3ncc(C(=O)N4CCSCC4)c3C)c2)n1
820 | CNC(=O)N1CCCC(c2cccc(C(=O)NC3CCCCCC3)c2)C1 (stereo not given)
790 | Clc1cccc(Nc2nnc(-c3ccccc3)c3ccccc23)c1
762 | O=C(COc1ccc2ccccc2c1)NCC1CCN(c2ncccn2)CC1
1000 | COc1cccc(N2CCN(S(=O)(=O)c3ccsc3C(=O)NCC(C)C)CC2)c1
746 | CN(C)S(=O)(=O)N1CCCC1Cc1noc(-c2cccnc2)n1 (stereo not given)
1280 | Cc1c2c(nn1-c1ccc(SCc3cccc(F)c3)nn1)CCC2
713 | CSc1cccc(NC(=O)CCc2c(-c3ccc(F)cc3)nc3ccccn23)c1
926 | CC(C)NC(=O)c1cc(-c2ccc(F)cc2)cn1C
696 | CC(C)NC(=O)C1CCc2sc(C(=O)N3CCCC3)cc2C1 (stereo not given)
575 | CN(C)C(=O)c1ccc2c(c1)nc(CN1CCN(C(=O)c3ccco3)CC1)n2C
677 | CC(C)CCNC(=O)C1CCCN(c2cc(=O)n(C)c(=O)n2C)C1 (stereo not given)
839 | Cc1ccc2c(c1)N(C)N=C(C(=O)N1CCCCCC1)S2(=O)=O
853 | O=C(NCC(O)(c1ccccc1)C(F)(F)F)c1ccc2nsnc2c1 (stereo not given)
639 | CC(C)C(=O)N1CCc2c(c(-c3nncn3C(C)C)nn2C)C1
791 | O=C(c1ccccc1F)N1N=C(c2cccs2)CC1c1ccc2nccnc2c1 (stereo not given)
848 | Cc1cccc(C)c1NS(=O)(=O)c1cc2c3c(c1)CCC(=O)N3CCC2
776 | Cc1ccc(NC(=O)Nc2cccn3ncnc23)cc1
617 | CC(C)NC(=O)CCC(=O)N1CCc2c(c(C(=O)N3CCCCC3)nn2C)C1

RP-LC retention time [s] | Compound
1120 | CCCCOc1ccc(-c2nc(C3CC(=O)N(c4ccc(OC)c(OC)c4)C3)no2)cc1 (stereo not given)
702 | COC(=O)c1c(C)[nH]c(C(=O)N2CCC(CC(=O)N3CCN(c4ccc(OC)cc4)CC3)CC2)c1C
943 | CSc1ccc(-c2nc3nc(C)cc(C)n3c2Nc2ccc(C(C)C)cc2)cc1
606 | CSc1ncccc1C(=O)N1CCc2nc(C)ncc2C1
901 | CCn1cc(C(=O)NCc2ccccc2F)c(S(=O)(=O)N2CCSCC2)n1
820 | Cc1ccc(NC(=O)N2CCCN(c3ccc(=O)n(-c4ccccc4)n3)CC2)cc1
785 | COCc1nc(C2CCN(S(=O)(=O)c3ccc(C#N)cc3)C2)no1 (stereo not given)
774 | CN(C(=O)Cn1ccn2nc(-c3ccccc3)c(CO)c2c1=O)c1ccccc1
1000 | Cc1cc(-c2nnc(-c3ccc(F)cc3)o2)c(C)n1CC(=O)N(C)Cc1ccccc1
671 | COc1ccc(CC(=O)NC(C)C(=O)Nc2nc3ccccc3[nH]2)cc1Cl (stereo not given)
859 | O=C(COc1ccccc1)Nc1nnc(SCC(=O)N2CCCc3ccccc32)s1
1030 | CCn1c(=O)c(N2CCN(C(=O)Nc3cccc(Br)c3)CC2)nc2cccnc21
597 | CN1C(=O)N(C)C2(CCN(C(=O)c3ccco3)CC2)C1=O
1030 | O=C1CC(c2nc(-c3ccc4c(c3)OCO4)no2)CN1c1ccc(Cl)cc1 (stereo not given)
797 | O=C(NCC1CCCO1)c1nnc(-c2ccc(S(=O)(=O)N3CCCCC3)cc2)o1 (stereo not given)
975 | CN(C(=O)C1CCN(S(=O)(=O)c2cc(C(=O)N3CCCCCC3)cs2)CC1)C1CCCCC1
687 | CCc1nc(-c2cc3ccccc3nc2N2CCN(c3ccc(OC)cc3)CC2)no1
824 | Cc1cc2c(cc1C(=O)NCCc1c[nH]c3ccccc13)OCCCO2
761 | CN1C(=O)C(CC(=O)NCC2CCCCC2)Sc2ncccc21 (stereo not given)
813 | CC(C)CN1CCn2cc(S(=O)(=O)NCc3cccc(F)c3)cc2C1=O
912 | Cc1nc(-c2ccc3c(c2)n(CC(=O)NC2CCCc4ccccc42)c(=O)n3C(C)C)no1 (stereo not given)
1080 | CCOc1ccccc1-c1noc(-c2nnn3c2COC(c2ccc(OC)cc2)C3)n1 (stereo not given)
993 | Cc1ccc(NC(=O)N2CCCC(C)(C(=O)NCc3ccccc3)C2)c(Cl)c1 (stereo not given)

RP-LC retention time [s] | Compound
814 | Cc1ccc(S(=O)(=O)c2nc(C)oc2NCc2ccco2)cc1
1030 | CCn1nnc2ccc(-c3noc(-c4ccc(OC)cc4)n3)cc21
879 | CCc1nnc2ccc(-c3noc(-c4ccc(F)cc4F)n3)cn12
1030 | Cc1ccc(CNC(=O)C2(C)CN(S(=O)(=O)c3ccccc3)CC(=O)N2CCC(C)C)cc1 (stereo not given)
1030 | CC(C)c1cc(C(=O)Nc2cccc(C#N)c2)nc2ccnn12
973 | Cc1ccc(S(=O)(=O)N2C(=O)CCC2C(=O)Nc2ccc(C)c(C)c2)cc1 (stereo not given)
706 | Cc1cc2c(=O)n(CC(=O)Nc3ccc(C(F)(F)F)cc3)ccc2s1
921 | O=C(Nc1ccc2c(c1)CCC2)C1CC(=O)N(CCc2c[nH]c3ccc(Cl)cc23)C1 (stereo not given)
776 | Cc1cc(NC(=O)C2CCCN2S(=O)(=O)c2ccc(Cl)s2)n(C(C)C)n1 (stereo not given)
577 | CCC(=O)N1CCc2sc(C(=O)NCc3ccccn3)cc2C1
569 | CCOc1ccc(C(O)CN2CCN(C3CCCCC3)CC2)cc1 (stereo not given)
666 | CCn1cnc2cc(-c3noc(C(NC(=O)c4ccco4)C(C)C)n3)ccc21 (stereo not given)
1040 | Cc1sc2ccn(CC(C)C)c(=O)c2c1C(=O)NCc1cc(F)ccc1F
888 | CCOc1ccc(NC(=O)C2CCN(S(=O)(=O)c3ccc4c(c3)NC(=O)C(CC)O4)CC2)cc1 (stereo not given)
851 | CCOC(=O)c1cccc(NC(=O)C2CCCN(C(=O)C3Sc4ccccc4NC3=O)C2)c1 (stereo not given)
1050 | O=S(=O)(c1ccc(C2CCCCC2)cc1)N1CCOCC1
795 | COc1cccc(N2CCN(C(=O)Cn3ccc4c(SCc5ccc(F)cc5)nccc43)CC2)c1
978 | Cn1ncc2c(Nc3cccc(Cl)c3)nc(N3CCCC3)nc21
889 | CCn1ncc(NC(=O)COc2ccccc2C)c(N2CCOCC2)c1=O
1140 | CCC(C)NC(=O)c1c(O)c2cccnc2n(-c2ccc(OC)cc2)c1=O (stereo not given)

Compound | RP-LC retention time [s]
Cn1cc(C(=O)Nc2ccc3c(c2)OCCO3)c2cccnc21 | 727
